Measurements published in article PMC7351026, “Serum Half-Lives for Short- and Long-Chain Perfluoroalkyl Acids after Ceasing Exposure from Drinking Water Contaminated by Firefighting Foam” (Environmental Health Perspectives, 2020).
Where “and” joins values, the source holds several entries; their conditions need not be identical. Equal entries are not always repeated.

Legend:
[1] = Background serum PFAS levels in reference population from Karlshamn; assay type: in vivo, human; settings: reference group from Karlshamn without PFAS contamination in drinking water, N=58, sampled 2016
Source text: For comparison with Swedish general background PFAS serum levels, we referred to the PFAS levels observed in a reference population from Karlshamn, a municipality in southern Sweden without PFAS contamination in the municipal drinking water. In 2016, 226 individuals were sampled. Fifty-nine individuals were randomly selected for analyzing other short-chain PFAS than the legacy ones, using the same modified method as for the airport employees. Fifty-eight individuals within the same age range as the airport employees (i.e., >22 years of age ) were included in the comparison. For a detailed description of this population see Li et al. ([2018]).

[2] = PFAS levels in serum samples of airport employees (LC/MS/MS); settings: for Serum level, median (range): second to fifth samplings, 17 airport employees
Procedure, shortened: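 LC/MS/MS quantification (BEH C18, 5 mM ammonium acetate water:methanol to methanol gradient) after protein precipitation of 25 μL serum with isotopically labeled internal standards, FBS-matrix calibration. Samples stored at −80°C, collected at monthly intervals from September 2018 and run together in a single batch.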

[3] = 1st sampling (September 2018), count 17
[4] = 2nd sampling (October 2018), count 17
[5] = 3rd sampling (November, 2018), count 17
[6] = 4th sampling (December 2018), count 16
[7] = 5th sampling (January 2019), count 16
[8] = employees participated in first blood sampling and repeated blood and urine sampling, N=17
[9] = employees participated in first blood sampling only, N=9, 11-14 d after end of exposure
[10] = first serum samples, all 26 airport employees
[11] = median of first serum samples, all 26 airport employees

O=S(=O)(O)C(F)(F)C(F)(F)C(F)(F)C(F)(F)C(F)(F)C(F)(F)F [PFHxS, perfluorohexane sulfonic acid]
PFAS serum level, median (range) [1]: 0.59 ( <LOD –1.2) ng/mL | Serum PFAS level, 25 percentile [2, 3]: 63 | Serum PFAS level, 75 percentile [2, 3]: 155 | Serum PFAS level, Max [2, 3]: 402 | Serum PFAS level, Median [2, 3]: 133 | Serum PFAS level, Min [2, 3]: 21 | Serum PFAS level, 25 percentile [2, 4]: 57 | Serum PFAS level, 75 percentile [2, 4]: 144 | Serum PFAS level, Max [2, 4]: 363 | Serum PFAS level, Median [2, 4]: 122 | Serum PFAS level, Min [2, 4]: 18 | Serum PFAS level, 25 percentile [2, 5]: 57 | Serum PFAS level, 75 percentile [2, 5]: 150 | Serum PFAS level, Max [2, 5]: 392 | Serum PFAS level, Median [2, 5]: 119 | Serum PFAS level, Min [2, 5]: 20 | Serum PFAS level, 25 percentile [2, 6]: 50 | Serum PFAS level, 75 percentile [2, 6]: 146 | Serum PFAS level, Max [2, 6]: 381 | Serum PFAS level, Median [2, 6]: 109 | Serum PFAS level, Min [2, 6]: 17 | Serum PFAS level, 25 percentile [2, 7]: 64 | Serum PFAS level, 75 percentile [2, 7]: 153 | Serum PFAS level, Max [2, 7]: 399 | Serum PFAS level, Median [2, 7]: 117 | Serum PFAS level, Min [2, 7]: 42 | Serum level in the first samples, median (range) ([2]; all 26 airport employees): 76 (17–402) ng/mL | PFAS in first serum sample, median (range) [2, 8]: 133 (21–402) ng/mL | PFAS in first serum sample, median (range) [2, 9]: 60 (17–85) ng/mL | Initial serum PFAS level, max ([2]; females (N=7)): 183 ng/mL | Initial serum PFAS level, median ([2]; females (N=7)): 74 ng/mL | Initial serum PFAS level, min ([2]; females (N=7)): 21 ng/mL | Relative composition of PFAS in serum, molar concentration basis [2, 10]: 70.4% and 70% | Relative composition of PFAS in serum, weight basis [2, 10]: 68.9% | Initial serum PFAS level, Max ([2]; males (N=19)): 402 ng/mL | Initial serum PFAS level, Min ([2]; males (N=19)): 17 ng/mL | Initial serum PFAS level, median ([2]; males (N=19)): 78 ng/mL | Serum concentration, molar basis [2, 11]: 0.19 | Serum concentration, weight basis [2, 11]: 76 | Serum level, median (range) [2]: 118 (17–399) ng/mL

Perfluoro-2/6-methylheptanesulfonate [2/6m-PFOS]
PFAS serum level, median (range) [1]: 0.46 ( <LOD –1.4) ng/mL | Serum PFAS level, 25 percentile [2, 3]: 1.4 | Serum PFAS level, 75 percentile [2, 3]: 3.6 | Serum PFAS level, Max [2, 3]: 7.5 | Serum PFAS level, Median [2, 3]: 2.6 | Serum PFAS level, Min [2, 3]: 1.0 | Serum PFAS level, 25 percentile [2, 4]: 1.5 | Serum PFAS level, 75 percentile [2, 4]: 2.8 | Serum PFAS level, Max [2, 4]: 7.2 | Serum PFAS level, Median [2, 4]: 2.2 | Serum PFAS level, Min [2, 4]: 0.97 | Serum PFAS level, 25 percentile [2, 5]: 1.3 | Serum PFAS level, 75 percentile [2, 5]: 3.5 | Serum PFAS level, Max [2, 5]: 8.1 | Serum PFAS level, Median [2, 5]: 2.3 | Serum PFAS level, Min [2, 5]: 0.66 | Serum PFAS level, 25 percentile [2, 6]: 0.96 | Serum PFAS level, 75 percentile [2, 6]: 2.9 | Serum PFAS level, Max [2, 6]: 7.1 | Serum PFAS level, Median [2, 6]: 1.9 | Serum PFAS level, Min [2, 6]: 0.57 | Serum PFAS level, 25 percentile [2, 7]: 1.2 | Serum PFAS level, 75 percentile [2, 7]: 2.7 | Serum PFAS level, Max [2, 7]: 7.0 | Serum PFAS level, Median [2, 7]: 2.1 | Serum PFAS level, Min [2, 7]: 0.83 | PFAS in first serum sample, median (range) [2, 8]: 2.6 (1.0–7.5) ng/mL | PFAS in first serum sample, median (range) [2, 9]: 1.8 (0.84–3.2) ng/mL | Initial serum PFAS level, max ([2]; females (N=7)): 2.8 ng/mL | Initial serum PFAS level, median ([2]; females (N=7)): 1.4 ng/mL | Initial serum PFAS level, min ([2]; females (N=7)): 1.0 ng/mL | Initial serum PFAS level, Max ([2]; males (N=19)): 7.5 ng/mL | Initial serum PFAS level, Min ([2]; males (N=19)): 0.84 ng/mL | Initial serum PFAS level, median ([2]; males (N=19)): 2.5 ng/mL | Serum level, median (range) [2]: 2.1 (0.57–8.1) ng/mL

perfluoro-3/4/5-methylheptanesulfonate [3/4/5m-PFOS]
PFAS serum level, median (range) [1]: 0.79 (0.10–2.2) ng/mL | Serum PFAS level, 25 percentile [2, 3]: 2.7 | Serum PFAS level, 75 percentile [2, 3]: 6.3 | Serum PFAS level, Max [2, 3]: 17 | Serum PFAS level, Median [2, 3]: 4.9 | Serum PFAS level, Min [2, 3]: 1.7 | Serum PFAS level, 25 percentile [2, 4]: 2.4 | Serum PFAS level, 75 percentile [2, 4]: 4.8 | Serum PFAS level, Max [2, 4]: 15 | Serum PFAS level, Median [2, 4]: 4.1 | Serum PFAS level, Min [2, 4]: 1.3 | Serum PFAS level, 25 percentile [2, 5]: 2.5 | Serum PFAS level, 75 percentile [2, 5]: 5.1 | Serum PFAS level, Max [2, 5]: 16 | Serum PFAS level, Median [2, 5]: 4.2 | Serum PFAS level, Min [2, 5]: 1.0 | Serum PFAS level, 25 percentile [2, 6]: 2.1 | Serum PFAS level, 75 percentile [2, 6]: 4.9 | Serum PFAS level, Max [2, 6]: 16 | Serum PFAS level, Median [2, 6]: 3.6 | Serum PFAS level, Min [2, 6]: 1.0 | Serum PFAS level, 25 percentile [2, 7]: 2.7 | Serum PFAS level, 75 percentile [2, 7]: 4.9 | Serum PFAS level, Max [2, 7]: 16 | Serum PFAS level, Median [2, 7]: 4.0 | Serum PFAS level, Min [2, 7]: 1.0 | PFAS in first serum sample, median (range) [2, 8]: 4.9 (1.7–17) ng/mL | PFAS in first serum sample, median (range) [2, 9]: 2.9 (1.2–6.7) ng/mL | Initial serum PFAS level, max ([2]; females (N=7)): 5.4 ng/mL | Initial serum PFAS level, median ([2]; females (N=7)): 2.9 ng/mL | Initial serum PFAS level, min ([2]; females (N=7)): 1.7 ng/mL | Initial serum PFAS level, Max ([2]; males (N=19)): 17 ng/mL | Initial serum PFAS level, Min ([2]; males (N=19)): 1.2 ng/mL | Initial serum PFAS level, median ([2]; males (N=19)): 4.9 ng/mL
